Data published in patent US10927104B2, “Ether compounds and uses thereof” (BioTheryX, Inc., priority 2017, dated 2021).

Experiments:
Type in all cases: cell-based
[1] = tested on: Molm-13 cells; assay: Cell viability assay (CellTiter-Glo), Molm-13 proliferation; conditions: Homo sapiens, MOLM-13, 72 h, 3 days; for inhibition at 1 µM: compound at 1 μM
Experimental: (§1) Molm-13 and MV-4-11 cells were cultivated in RPMI-1640 (10% FBS/1% pen-strep) and were plated in white walled 96-well plates at 20,000 cells/well.
(§2) Cells were treated with compound at the indicated concentration or DMSO (control) and the cultures were incubated for 3 days at 37° C. and 5% CO2. Following the incubation period, 100 μL of CellTiterGlow (CTG) reagent (CellTiter-Glo® Luminescent Cell Viability Assay, Promega (Madison, Wis.)) was added to each well. Following a 10 min incubation with shaking, luminescence was measured using a Victor Wallac Luminometer.

[2] = tested on: IL-1β; assay: PBMC assay, LPS-induced IL-1β (Meso Scale); conditions: Homo sapiens, PBMCs, 100 ng/mL LPS 18-24 hrs; for inhibition at 0.1 µM: compound at 0.1 μM; for inhibition at 1 µM: compound at 1 μM
Experimental: (§3) FIG. 1 represents the activity against IL-1-beta in peripheral blood mononuclear cells (PBMCs), plated in 96 well plates and pretreated with compound for 1 hour and then induced with 100 ng/mL LPS for 18-24 hrs. Cytokines in the media were measured according to MesoScale protocol. Negative control wells were treated with DMSO. Compound activity is measured as a percentage of LPS-induced activity.
(§4) Frozen primary blood mononuclear cells (PBMCs) were purchased from AllCells. Cells were quick thawed, washed once with RPMI-1640/10% FBS.
(§5) 1% Penicillin/1% Streptomycin and plated in 96 well plates at 200,000 cells per well. Cells were pretreated with DMSO only, or Compound 1 for 1 hour and then induced with 100 ng/mL lipopolysaccharide (LPS) for 18-24 hrs. The supernatant was analyzed for IL-1 beta, IL-6, and TNFα, using Meso Scale assay according to manufacturer's protocol. The negative control wells were treated with DMSO.
(§6) Compound activity was measured as fold difference from the DMSO control. IL-1β activity is shown in FIG. 1; IL-6 activity is shown in FIG. 2; TNFα activity is shown in FIG. 3; and IL-2 activity is shown in FIG. 4. Additional data for compounds (shown as percent inhibition) at 10 μM is shown in Table 1; at 1 μM in Table 2; and at 0.1 μM in Table 3.

[3] = tested on: IL-6; assay: PBMC assay, LPS-induced IL-6 (Meso Scale); conditions: Homo sapiens, PBMCs, 100 ng/mL LPS 18-24 hrs; for inhibition at 0.1 µM: compound at 0.1 μM; for inhibition at 1 µM: compound at 1 μM
Experimental: as §3, with “FIG. 2” for “FIG. 1”, “against IL-6” for “against IL-1-beta”, “Cytokines” for “Cytokines in the media”, “activity was” for “activity is”
as §4, §5, §6

[4] = tested on: MV-4-11 cells; assay: Cell viability assay (CellTiter-Glo), MV-4-11 proliferation; conditions: Homo sapiens, MV4-11, 72 h, 3 days; for inhibition at 1 µM: compound at 1 μM; for inhibition at 10 µM: compound at 10 μM
Experimental: as §1, §2

[5] = tested on: TNFα; assay: PBMC assay, LPS-induced TNFα (Meso Scale); conditions: Homo sapiens, PBMCs, 100 ng/mL LPS 18-24 hrs; for inhibition at 0.1 µM: compound at 0.1 μM; for inhibition at 1 µM: compound at 1 μM
Experimental: as §3, with “FIG. 3” for “FIG. 1”, “against TNFα” for “against IL-1-beta”, “protocol. The negative” for “protocol. Negative”
as §4, §5, §6

[6] = tested on: IL-2; assay: Anti-CD3-induced IL-2 secretion in PBMCs (Mesoscale); conditions: Homo sapiens, PBMC, anti-CD3 stimulated PBMCs, 24 hr, vs DMSO control, read-out: IL-2 Fold Change; for fold induction at 0.1 µM: compound at 0.1 μM; for fold induction at 1 µM: compound at 1 μM
Experimental: FIG. 4 represents Anti-CD3-induced IL-2 secretion in PBMCs. 1 μg/mL anti-CD3 (OKT-3) antibody in PBS coated onto 96-well plates overnight at 4° C. Approximately, 550,000 PBMCs were added to each well, followed by addition of DMSO only (control) or Compound 1. Induction was measured after 24 hrs as fold difference from the DMSO stimulated control.
as §4
For the IL-2 analysis, 96 well plates were precoated with 1 μg/mL anti-human CD3 antibody (OKT3, eBioscience Inc.). After washing with PBS, Compound 1 was added (50 μL/well) followed by PBMCs diluted at 3-4 million cells/mL (150 μL/well). Plates were incubated for 24 hr and the supernatants collected for Mesoscale IL-2 analysis.
as §6

Compound | inhibition at 1 µM [1] | inhibition at 0.1 µM [2] | inhibition at 1 µM [2] | inhibition at 0.1 µM [3] | inhibition at 1 µM [3] | inhibition at 1 µM [4] | inhibition at 10 µM [4] | inhibition at 0.1 µM [5] | inhibition at 1 µM [5] | fold induction at 0.1 µM [6] | fold induction at 1 µM [6] | inhibition at 0.1 µM ([1]; compound at 0.1 μM)
Cc1cnc(Nc2ccc(OCCCNC(=O)NCc3ccc4c(c3OCc3ccc(CN5CCOCC5)cc3)CN([C@H]3CCC(=O)NC3=O)C4=O)cc2)nc1Nc1cccc(S(=O)(=O)NC(C)(C)C)c1 [Compound 23] | 30% | 35% | 79% | 23% | 32% | 8% | 79% | 48% | 88% | 0.9 | 1.3 | 
O=C1CCC[C@H](N2Cc3c(OCCc4ccc(CN5CCOCC5)cc4)cccc3C2=O)C(=O)N1 [Compound 26, (S)-3-(4-{2-[p-(Morpholinomethyl)phenyl]ethoxy}-2-isoindolinoyl)-2,7-azepanedione] | 66% | 78% | 81% | 5% | 8% | 2% | 23% | 82% | 87% | 2.6 | 2.7 | 21%
Cc1cnc(Nc2ccc(OCCCNC(=O)NCc3ccc4c(c3OCc3ccc(CN5CCOCC5)cc3)CN([C@H]3CCCC(=O)NC3=O)C4=O)cc2)nc1Nc1cccc(S(=O)(=O)NC(C)(C)C)c1 [Compound 27] | 37% | 50% | 62% | 5% | 4% | 10% | 36% | 60% | 72% | 1.3 | 1.5 | 
